Measurements as given in publication PMC5766609 (Scientific Reports, 2018).
Residues, ends and D or L forms follow the SMILES beside them.

Tests used:
[1] = target: T1, human glucagon receptor (GCGR) (Homo sapiens, UniProt P47871); assay: cAMP assay on CHO-JumpIn cells stably transfected with human glucagon receptor (HitHunter cAMP); format: cell-based; settings: for EC50: Table 2, cAMP accumulation, CHO-JumpIn cells with human GCGR, buffer PBS, 0.1% BSA, 100 μM RO 20-1724, 20% serum, 1 hr at RT, value ± spread, read-out: EC50 GCGR;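 for all read-outs here: peptides tested as 4-fold serial dilutions starting from a 2 µM solution, cells exposed 1 hr at RT in darkness, cAMP quantified against a cAMP standard curve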
T1 construct: expressed in transfected cells; host or cells: CHO-JumpIn cells, stably transfected
T1 sequence (P47871 26-477): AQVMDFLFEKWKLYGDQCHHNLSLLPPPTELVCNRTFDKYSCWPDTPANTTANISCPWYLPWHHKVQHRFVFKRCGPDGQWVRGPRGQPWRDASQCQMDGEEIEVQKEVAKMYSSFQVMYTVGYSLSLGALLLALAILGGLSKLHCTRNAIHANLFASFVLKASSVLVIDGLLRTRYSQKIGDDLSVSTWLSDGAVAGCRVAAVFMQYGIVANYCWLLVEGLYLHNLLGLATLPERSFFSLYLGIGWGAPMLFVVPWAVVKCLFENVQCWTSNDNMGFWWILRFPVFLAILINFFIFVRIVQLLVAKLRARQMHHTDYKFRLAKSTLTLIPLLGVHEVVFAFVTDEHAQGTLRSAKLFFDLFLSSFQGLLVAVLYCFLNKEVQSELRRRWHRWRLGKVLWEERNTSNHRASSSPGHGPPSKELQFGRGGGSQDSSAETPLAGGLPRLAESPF

[2] = target: T2, human GLP-1 receptor (GLP1R) (Homo sapiens, UniProt P43220); assay: cAMP assay on CHO-JumpIn cells stably transfected with human GLP-1 receptor (HitHunter cAMP); format: cell-based; settings: Table 2, cAMP accumulation, buffer PBS, 0.1% BSA, 100 μM RO 20-1724, 20% serum, 1 hr at RT, value ± spread, read-out: EC50 GLP1R;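 note: peptides tested as 4-fold serial dilution series, cells exposed 1 hr at RT in the dark, cAMP quantified against a cAMP standard calibration curve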
T2 construct: expressed in transfected cells; host or cells: CHO-JumpIn cells, stably transfected
T2 sequence (P43220 24-463): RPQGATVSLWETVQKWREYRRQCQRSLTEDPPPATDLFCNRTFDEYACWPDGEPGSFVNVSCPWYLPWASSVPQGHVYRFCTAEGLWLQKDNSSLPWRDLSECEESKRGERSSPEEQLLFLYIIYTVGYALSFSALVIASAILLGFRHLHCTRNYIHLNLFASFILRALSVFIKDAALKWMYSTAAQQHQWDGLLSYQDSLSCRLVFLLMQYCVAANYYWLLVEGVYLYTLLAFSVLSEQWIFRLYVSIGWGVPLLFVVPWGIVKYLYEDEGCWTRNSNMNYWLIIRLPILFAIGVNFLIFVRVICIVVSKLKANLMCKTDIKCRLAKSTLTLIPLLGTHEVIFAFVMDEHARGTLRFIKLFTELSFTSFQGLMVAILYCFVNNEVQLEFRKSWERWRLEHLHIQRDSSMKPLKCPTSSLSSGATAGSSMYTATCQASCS

Structure (SMILES)	EC50 [1]	EC50 [2]	activation of the receptors (in words) ([1]; both receptors (GCGR and GLP1R) not activated)
CC[C@H](C)[C@H](NC(=O)[C@H](Cc1ccc(O)cc1)NC(=O)[C@H](CC(=O)O)NC(=O)[C@H](CO)NC(=O)[C@@H](NC(=O)[C@H](Cc1ccccc1)NC(=O)[C@@H](NC(=O)CNC(=O)[C@H](CCC(N)=O)NC(=O)[C@H](CO)NC(=O)[C@@H](N)Cc1c[nH]cn1)[C@@H](C)O)[C@@H](C)O)C(=O)N[C@@H](CCCCN)C(=O)N[C@@H](CC(C)C)C(=O)N[C@@H](CC(C)C)C(=O)N[C@@H](CC(=O)O)C(=O)N[C@@H](CO)C(=O)N[C@@H](CCCNC(=N)N)C(=O)N[C@@H](CCCNC(=N)N)C(=O)N[C@@H](C)C(=O)N[C@@H](CCC(N)=O)C(=O)N[C@@H](CC(=O)O)C(=O)N[C@@H](Cc1ccccc1)C(=O)N[C@H](C(=O)N[C@@H](CCC(N)=O)C(=O)N[C@@H](Cc1c[nH]c2ccccc12)C(=O)N[C@@H](CC(C)C)C(=O)N[C@@H](CCSC)C(=O)N[C@@H](CC(N)=O)C(=O)N[C@H](C(N)=O)[C@@H](C)O)C(C)C [Peptide 7] (H-HSQGTFTSDYIKLLDSRRAQDFVQWLMNT-NH2)	0.301 ± 0.216 nM	78.3 ± 93.8 nM	–
CC[C@H](C)[C@H](NC(=O)[C@H](CC(C)C)NC(=O)[C@H](Cc1c[nH]c2ccccc12)NC(=O)[C@H](CCC(N)=O)NC(=O)[C@@H](NC(=O)[C@H](Cc1ccccc1)NC(=O)[C@H](CC(=O)O)NC(=O)[C@H](CCC(N)=O)NC(=O)[C@H](C)NC(=O)[C@H](CCCNC(=N)N)NC(=O)[C@H](CCCNC(=N)N)NC(=O)[C@H](C)NC(=O)[C@H](CC(=O)O)NC(=O)[C@H](CC(C)C)NC(=O)[C@H](Cc1ccc(O)cc1)NC(=O)[C@H](CCCCN)NC(=O)[C@H](CO)NC(=O)[C@H](Cc1ccc(O)cc1)NC(=O)[C@H](CC(=O)O)NC(=O)[C@H](CO)NC(=O)[C@@H](NC(=O)[C@H](Cc1ccccc1)NC(=O)[C@@H](NC(=O)CNC(=O)[C@H](CCC(N)=O)NC(=O)[C@H](CO)NC(=O)[C@@H](N)Cc1c[nH]cn1)[C@@H](C)O)[C@@H](C)O)C(C)C)C(=O)N[C@@H](CCCNC(=N)N)C(=O)N[C@H](C(N)=O)[C@@H](C)O [Peptide 8]	0.038 ± 0.01 nM	0.017 ± 0.001 nM	–
CSCC[C@H](NC(=O)[C@H](CC(C)C)NC(=O)[C@H](Cc1c[nH]c2ccccc12)NC(=O)[C@H](CCC(N)=O)NC(=O)[C@@H](NC(=O)[C@H](Cc1ccccc1)NC(=O)[C@H](CC(=O)O)NC(=O)[C@H](Cc1ccc(O)cc1)NC(=O)[C@H](C)NC(=O)[C@H](CCCNC(=N)N)NC(=O)[C@H](CC(C)C)NC(=O)[C@H](CCC(=O)O)NC(=O)[C@H](CC(=O)O)NC(=O)[C@H](CC(C)C)NC(=O)[C@H](Cc1ccc(O)cc1)NC(=O)[C@H](CCCCN)NC(=O)[C@H](CO)NC(=O)[C@H](Cc1ccc(O)cc1)NC(=O)[C@H](CC(=O)O)NC(=O)[C@H](CO)NC(=O)[C@@H](NC(=O)[C@H](Cc1ccccc1)NC(=O)[C@@H](NC(=O)CNC(=O)[C@H](CCC(N)=O)NC(=O)[C@H](CO)NC(=O)[C@@H](N)Cc1c[nH]cn1)[C@@H](C)O)[C@@H](C)O)C(C)C)C(=O)N[C@@H](CC(N)=O)C(=O)N[C@H](C(N)=O)[C@@H](C)O [Peptide 10] (H-HSQGTFTSDYSKYLDELRAYDFVQWLMNT-NH2)	0.057 ± 0.021 nM	0.038 ± 0.009 nM	–
CC(C)C[C@H](NC(=O)[C@H](Cc1ccc(O)cc1)NC(=O)[C@H](CCCCN)NC(=O)[C@H](CO)NC(=O)[C@H](Cc1ccc(O)cc1)NC(=O)[C@H](CC(=O)O)NC(=O)[C@H](CO)NC(=O)[C@@H](NC(=O)[C@H](Cc1ccccc1)NC(=O)[C@@H](NC(=O)CNC(=O)[C@H](CCC(N)=O)NC(=O)[C@H](CO)NC(=O)[C@@H](N)Cc1c[nH]cn1)[C@@H](C)O)[C@@H](C)O)C(=O)N[C@@H](CC(=O)O)C(=O)N[C@@H](CO)C(=O)N[C@@H](CCCNC(=N)N)C(=O)N[C@@H](CCCNC(=N)N)C(=O)N[C@@H](C)C(=O)N[C@@H](Cc1c[nH]cn1)C(=O)N[C@@H](CC(=O)O)C(=O)N[C@@H](Cc1ccccc1)C(=O)N[C@H](C(=O)N[C@@H](CCC(N)=O)C(=O)N[C@@H](Cc1c[nH]c2ccccc12)C(=O)N[C@@H](CC(C)C)C(=O)N[C@@H](CC(C)C)C(=O)N[C@@H](CC(N)=O)C(=O)N[C@H](C(N)=O)[C@@H](C)O)C(C)C [Peptide 11] (H-HSQGTFTSDYSKYLDSRRAHDFVQWLLNT-NH2)	0.018 ± 0.005 nM	0.018 ± 0.001 nM	–
CC[C@H](C)[C@H](NC(=O)[C@H](CC(C)C)NC(=O)[C@H](Cc1c[nH]c2ccccc12)NC(=O)[C@H](CCC(N)=O)NC(=O)[C@@H](NC(=O)[C@H](Cc1ccccc1)NC(=O)[C@H](CC(=O)O)NC(=O)[C@H](CCC(N)=O)NC(=O)[C@H](C)NC(=O)[C@H](CCCNC(=N)N)NC(=O)[C@H](CCCNC(=N)N)NC(=O)[C@H](CO)NC(=O)[C@H](CC(=O)O)NC(=O)[C@H](CC(C)C)NC(=O)[C@H](Cc1ccc(O)cc1)NC(=O)[C@H](CCCCN)NC(=O)[C@H](CO)NC(=O)[C@H](Cc1ccc(O)cc1)NC(=O)[C@H](CC(=O)O)NC(=O)[C@H](CO)NC(=O)[C@@H](NC(=O)[C@H](Cc1ccccc1)NC(=O)[C@@H](NC(=O)CNC(=O)[C@H](CCC(N)=O)NC(=O)[C@H](CO)NC(=O)[C@@H](N)Cc1c[nH]cn1)[C@@H](C)O)[C@@H](C)O)C(C)C)C(=O)N[C@@H](CC(N)=O)C(=O)N[C@@H](Cc1ccc(O)cc1)C(N)=O [Peptide 13]	0.078 ± 0.05 nM	0.039 ± 0.008 nM	–
CSCC[C@H](NC(=O)[C@H](CO)NC(=O)[C@H](C)N)C(=O)N[C@@H](Cc1ccccc1)C(=O)N[C@H](C(=O)N[C@@H](Cc1ccccc1)C(=O)N[C@@H](Cc1ccccc1)C(=O)N[C@@H](CO)C(=O)N[C@@H](CC(=O)O)C(=O)N[C@@H](Cc1ccc(O)cc1)C(=O)N[C@@H](CO)C(=O)N[C@@H](CCCCN)C(=O)N[C@@H](Cc1ccc(O)cc1)C(=O)N[C@@H](CC(C)C)C(=O)N[C@@H](CC(=O)O)C(=O)N[C@@H](CO)C(=O)N[C@@H](CCCNC(=N)N)C(=O)N[C@@H](CCCNC(=N)N)C(=O)N[C@@H](C)C(=O)N[C@@H](CCC(N)=O)C(=O)N[C@@H](CC(=O)O)C(=O)N[C@@H](Cc1ccccc1)C(=O)N[C@H](C(=O)N[C@@H](CCC(N)=O)C(=O)N[C@@H](Cc1c[nH]c2ccccc12)C(=O)N[C@@H](CC(C)C)C(=O)N[C@@H](CCSC)C(=O)N[C@@H](CC(C)C)C(=O)N[C@H](C(N)=O)[C@@H](C)O)C(C)C)[C@@H](C)O [Peptide 15] (H-ASMFTFFSDYSKYLDSRRAQDFVQWLMLT-NH2; N-terminus assumed)	> 20 nM	> 200 nM	did not activate
CSCC[C@H](NC(=O)[C@H](CC(C)C)NC(=O)[C@H](Cc1c[nH]c2ccccc12)NC(=O)[C@H](CCC(N)=O)NC(=O)[C@@H](NC(=O)[C@H](Cc1ccccc1)NC(=O)[C@H](CC(=O)O)NC(=O)[C@H](CCC(N)=O)NC(=O)[C@H](C)NC(=O)[C@H](CCCNC(=N)N)NC(=O)[C@H](CCCNC(=N)N)NC(=O)[C@H](CO)NC(=O)[C@H](CC(=O)O)NC(=O)[C@H](CC(C)C)NC(=O)[C@H](Cc1ccc(O)cc1)NC(=O)[C@H](Cc1ccc(O)cc1)NC(=O)[C@H](Cc1ccc(O)cc1)NC(=O)[C@H](Cc1ccc(O)cc1)NC(=O)[C@H](CC(=O)O)NC(=O)[C@H](Cc1c[nH]cn1)NC(=O)[C@H](CC(C)C)NC(=O)[C@H](Cc1ccccc1)NC(=O)[C@@H](NC(=O)CNC(=O)[C@H](CCC(N)=O)NC(=O)[C@H](CO)NC(=O)[C@@H](N)Cc1c[nH]cn1)[C@@H](C)O)C(C)C)C(=O)N[C@@H](CC(=O)O)C(=O)N[C@H](C(N)=O)[C@@H](C)O [Peptide 17] (H-HSQGTFLHDYYYYLDSRRAQDFVQWLMDT-NH2)	0.527 ± 0.315 nM	> 200 nM	–
CC[C@H](C)[C@H](NC(=O)[C@H](CO)NC(=O)[C@H](CC(=O)O)NC(=O)[C@H](CC(C)C)NC(=O)[C@H](Cc1ccc(O)cc1)NC(=O)[C@H](CCCCN)NC(=O)[C@H](CO)NC(=O)[C@H](Cc1ccc(O)cc1)NC(=O)[C@H](CC(=O)O)NC(=O)[C@H](CO)NC(=O)[C@@H](NC(=O)[C@H](Cc1ccccc1)NC(=O)[C@@H](NC(=O)CNC(=O)[C@H](CCC(N)=O)NC(=O)[C@H](CO)NC(=O)[C@@H](N)Cc1c[nH]cn1)[C@@H](C)O)[C@@H](C)O)C(=O)N[C@@H](CCCNC(=N)N)C(=O)N[C@@H](C)C(=O)N[C@@H](CCC(N)=O)C(=O)N[C@@H](CC(=O)O)C(=O)N[C@@H](Cc1ccccc1)C(=O)N[C@H](C(=O)N[C@@H](CCC(N)=O)C(=O)N[C@@H](Cc1c[nH]c2ccccc12)C(=O)N[C@@H](CC(C)C)C(=O)N[C@@H](CCSC)C(=O)N[C@@H](CC(=O)O)C(=O)N[C@H](C(N)=O)[C@@H](C)O)C(C)C [Peptide 18] (H-HSQGTFTSDYSKYLDSIRAQDFVQWLMDT-NH2)	0.037 ± 0.011 nM	0.056 ± 0.012 nM	–
CSCC[C@H](NC(=O)[C@H](CC(C)C)NC(=O)[C@H](Cc1c[nH]c2ccccc12)NC(=O)[C@H](CCC(N)=O)NC(=O)[C@@H](NC(=O)[C@H](Cc1ccccc1)NC(=O)[C@H](CC(=O)O)NC(=O)[C@H](CCC(N)=O)NC(=O)[C@H](C)NC(=O)[C@H](CCCNC(=N)N)NC(=O)[C@H](CCCNC(=N)N)NC(=O)[C@H](CO)NC(=O)[C@H](CC(=O)O)NC(=O)[C@H](CC(C)C)NC(=O)[C@H](Cc1ccc(O)cc1)NC(=O)[C@H](CCCCN)NC(=O)[C@H](CO)NC(=O)[C@H](Cc1ccc(O)cc1)NC(=O)[C@H](CC(=O)O)NC(=O)[C@H](CO)NC(=O)[C@@H](NC(=O)[C@H](Cc1ccccc1)NC(=O)[C@@H](NC(=O)[C@H](Cc1ccccc1)NC(=O)[C@H](CCC(N)=O)NC(=O)CNC(=O)[C@H](CC(C)C)NC(=O)[C@H](C)NC(=O)[C@@H](N)CCCCN)[C@@H](C)O)[C@@H](C)O)C(C)C)C(=O)N[C@@H](CC(N)=O)C(=O)N[C@H](C(N)=O)[C@@H](C)O [Peptide 21] (H-KALGQFTFTSDYSKYLDSRRAQDFVQWLMNT-NH2)	4.18 ± 1.13 nM	14.8 ± 11.4 nM	–
